Values quoted from earlier work in US12697339B2, “Composition and methods of treatment using synergistically-enhanced supplementation” (Xygenyx Inc., priority 2023, dated 2026).
Non-standard residues stand in square brackets, D forms with d. Residues, ends and D or L forms follow the SMILES beside them. Cit = NC(=O)NCCC[C@H](N)C(=O)O

What was measured:
skin [1] = settings: as penetration enhancer for transdermal drugs
[2] = studies using mice
[3] = tested on: wide dynamic range neurons in the ventroposterolateral nucleus of the thalamus; settings: believed
[4] = in vivo
skin [5] = settings: topical formulations, within four weeks of treatment
skin [6] = settings: topical application, concentrations 0.5-5%
[7] = compared to α-tocopherol with biological activity factor 1.0
[8] = even when dietary intake occurs in equal portions
[9] = in vivo; remark: listed apart in the source

CC12CCC(CC1)C(C)(C)O2 [Eucalyptol]
factor of increase in drug uptake via the transdermal route (skin [1]): more than 10

CC(CN)C(=O)O [L-BAIBA, L-beta-aminoisobutyric acid]
tolerated dose [2]: 10-100 mg/kg of bodyweight

CC(C)[C@@H]1CC[C@@H](C)C[C@H]1O [Menthol]
factor of increase in drug uptake via the transdermal route (skin [1]): ≥ 10

CCCCCc1cc(O)c2c(c1)OC(C)(C)C1CCC(C)=CC21 (stereo not drawn) [THC, Δ-9-tetrahydrocannabinol]
power in mediating pain relative to morphine [3]: ten times more powerful than morphine

CCNC(=O)CC[C@H](N)C(=O)O [Theanine]
dose considered safe and well-tolerated [4]: up to 400 mg per day

CC[C@H](C)[C@H](NC(=O)[C@H](CC(=O)O)NC(=O)[C@@H](N)CCCCN)C(=O)N[C@@H](CCCNC(N)=O)C(N)=O [Tripeptide-10 citrulline] (H-KDI[Cit]-NH2)
improvement of suppleness (skin [5]): ≤ 54%

C=CCCCCCCCCC(=O)N[C@@H](Cc1ccccc1)C(=O)O [Undecylenoyl phenylalanine]
time of treatment to skin lightening effects (skin [6]): ≥ 7 days

Cc1c(C)c2c(c(C)c1O)CC[C@@](C)(CCC[C@H](C)CCC[C@H](C)CCCC(C)C)O2 [α-tocopherol]
reduction of risk of coronary disease (dietary supplementation, doses up to 400 IU/day): up to 34% | reduction of risk of developing neurodegenerative diseases such as Alzheimer's Syndrome or dementia (dietary supplementation, doses up to 400 IU/day, controlled trials): ≤ 24% | reduction in the development of age-related cataracts (in combination with 10-20 mg β-carotene and 400-500 mg vitamin C, doses around 400-500 IU): 23%

Cc1cc(O)c(C)c2c1O[C@](C)(CCC[C@H](C)CCC[C@H](C)CCCC(C)C)CC2 [β-tocopherol]
relative biological activity [7]: 0.5

Cc1c(O)cc2c(c1C)O[C@](C)(CCC[C@H](C)CCC[C@H](C)CCCC(C)C)CC2 [γ-tocopherol]
relative biological activity [7]: 0.1 | concentration in vivo relative to α-tocopherol [8]: roughly 10%

Cc1cc(O)cc2c1O[C@](C)(CCC[C@H](C)CCC[C@H](C)CCCC(C)C)CC2 [δ-tocopherol]
relative biological activity [7]: 0.03

HGH: hormone comprising a peptide chain that is synthesized in the pituitary gland
biological half-life [9]: 10-20 minutes
